Experimental data: patent US20120177712A1, “ANTIMICROBIAL PARTICLE AND A PROCESS FOR PREPARING THE SAME” (priority 2009, published 2012)

Tested on: S. epidermidis
Assay: Antimicrobial activity on fabric (washed cotton swatches)
Format: cell-based
Conditions: in model detergent (0.6 g/L Na-LAS, 1.2 g/L Soda, 0.9 g/L NaCl), CPC 0.02 g/L or equivalent amount of particle, cotton swatches soaked, rinsed three times
Description: Cotton swatches having dimension 4×4 cm were used in this example. The swatches were soaked in respective compositions as given below for 30 minutes and then washed for 30 minutes in a shaker bath. After that the swatches were rinsed three times with deionized water in a shaker bath. The liquid to cloth ration were maintained at 20 during the washing and rinsing step.

CCCCCCCCCCCCCCCC[n+]1ccccc1 [CPC, Cetylpyridinium chloride]
Log reduction: 1.99
